Experimental data published in patent US20140155410A1 (GlaxoSmithKline LLC, priority 2008, published 2014).

Assays:
[1] = biological target: T1, Full length Human FAK (Flag-His-TEV-FAK1) (Homo sapiens, UniProt Q05397); assay: Biochemical assay for FAK activity, Assay 2: LANCE Ultra ULight peptide phosphorylation, 665 nm/615 nm ratio; details: Flag-His-TEV-FAK1, 10 μM ATP, 30 min pre-incubation; read-out: Assay 2 FAK H 31284A TRF PXC50 (converted)
T1 construct: Full length Human FAK was expressed using baculovirus in Sf9 cells; made in house; host or cells: baculovirus in Sf9 cells

[2] = biological target: T2, GST-tagged FAK (Homo sapiens, UniProt Q05397); assay: Biochemical assay for FAK activity, Assay 1: phosphorylation of peptide substrate with radio-labeled ATP; details: 5 μM ATP, 30 min pre-incubation, read-out: Assay 1 FAK TRF PXC50 (converted)
T2 construct: purchased Invitrogen PV3832
Method: GST-tagged (glutathione S-transferase-tagged) FAK was purchased from Invitrogen (PV3832) (www.invitrogen.com). […] To measure inhibitors of FAK, compounds were first prepared as a 10× stock in 10% DMSO. […] A 6-nM GST-FAK solution was prepared in 1.1× reaction buffer containing 44 mM HEPES, pH=7.2, 11 mM MgCl2, 2.2 mM MnCl2, 1.1 mM DTT and 0.011% Tween-20. Then, 20 μL of the 6 nM GST-FAK solution were pre-incubated with the compounds for 30 min at room temperature. […] The reaction was allowed to proceed for 90 min before being quenched with 40 μL of 1% H3PO4. A portion of the reaction mixture (60 μL) was transferred to a phospho-cellulose filter plate (Millipore; www.millipore.com, MAPHNOB50) and incubated for 20 minutes. The plate was filtrated, washed three times using 150 μL of 0.5% H3PO4 and dried at 50° C. for 30 min. After the addition of 60 μL Microscint-20 to the plate, radioactivity was measured using a TopCount (PerkinElmer; www.PerkinElmer.com).

T1 sequence (Q05397 whole entry): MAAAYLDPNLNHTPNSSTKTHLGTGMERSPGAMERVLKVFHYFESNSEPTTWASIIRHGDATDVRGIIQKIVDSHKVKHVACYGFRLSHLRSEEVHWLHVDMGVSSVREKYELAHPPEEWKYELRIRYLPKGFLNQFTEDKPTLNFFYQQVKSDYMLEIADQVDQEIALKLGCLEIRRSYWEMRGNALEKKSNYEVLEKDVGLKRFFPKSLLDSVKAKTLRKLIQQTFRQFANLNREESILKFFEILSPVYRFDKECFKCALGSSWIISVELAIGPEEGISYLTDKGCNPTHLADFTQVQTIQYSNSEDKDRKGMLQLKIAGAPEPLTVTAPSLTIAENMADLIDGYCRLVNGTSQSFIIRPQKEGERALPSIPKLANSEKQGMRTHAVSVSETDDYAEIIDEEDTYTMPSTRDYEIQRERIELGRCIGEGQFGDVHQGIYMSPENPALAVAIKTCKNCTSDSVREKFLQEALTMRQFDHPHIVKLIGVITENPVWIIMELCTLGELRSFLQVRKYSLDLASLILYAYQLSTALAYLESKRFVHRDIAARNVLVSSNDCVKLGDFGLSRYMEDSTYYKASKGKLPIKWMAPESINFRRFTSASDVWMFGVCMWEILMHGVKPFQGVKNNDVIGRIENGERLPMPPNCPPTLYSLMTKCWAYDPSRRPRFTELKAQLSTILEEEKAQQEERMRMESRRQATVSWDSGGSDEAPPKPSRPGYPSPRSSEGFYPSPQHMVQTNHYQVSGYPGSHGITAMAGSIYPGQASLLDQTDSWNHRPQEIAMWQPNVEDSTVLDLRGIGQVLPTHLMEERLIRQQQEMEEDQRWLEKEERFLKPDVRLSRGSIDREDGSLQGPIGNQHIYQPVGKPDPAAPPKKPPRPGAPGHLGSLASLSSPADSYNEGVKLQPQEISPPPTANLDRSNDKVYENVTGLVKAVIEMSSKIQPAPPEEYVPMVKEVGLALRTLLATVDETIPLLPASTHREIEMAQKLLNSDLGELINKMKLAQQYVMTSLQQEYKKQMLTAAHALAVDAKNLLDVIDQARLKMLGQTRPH
T2 sequence (Q05397 whole entry): as above

IC50 [1] [nM] | IC50 [2] [nM] | Compound
50.1 | 12.6 | CCNC(=O)c1ccccc1Nc1cc(Nc2cc(C)nn2CC)ncc1Cl [Example 42, 2-({5-Chloro-2-[(1-ethyl-3-methyl-1H-pyrazol-5-yl)amino]-4-pyridinyl}amino)-N-ethylbenzamide]
25.1 | 5.01 | CCNC(=O)c1ccccc1Nc1cc(Nc2cc(C)nn2C)ncc1Cl [Example 43, 2-({5-Chloro-2-[(1,3-dimethyl-1H-pyrazol-5-yl)amino]-4-pyridinyl}amino)-N-ethylbenzamide]
63.1 | 10 | CCNC(=O)c1ccccc1Nc1cc(Nc2cc(C)nn2C(C)C)ncc1Cl [Example 45, 2-[(5-Chloro-2-{[3-methyl-1-(1-methylethyl)-1H-pyrazol-5-yl]amino}-4-pyridinyl)amino]-N-ethylbenzamide]
5.01 | 0.631 | CNC(=O)c1ccccc1Nc1cc(Nc2cnn(C)c2C)ncc1Cl [Example 59, 2-({5-Chloro-2-[(1,5-dimethyl-1H-pyrazol-4-yl)amino]-4-pyridinyl}amino)-N-methylbenzamide]
31.6 | 2 | CNC(=O)c1cc(N2CCN(CCO)CC2)ccc1Nc1cc(Cl)ncc1Cl [Example 66, 2-[(2,5-Dichloro-4-pyridinyl)amino]-5-[4-(2-hydroxyethyl)-1-piperazinyl]-N-methylbenzamide]
5.01 | 63.1 | CCn1nccc1Nc1cc(Nc2ccc(N3CCN(CCO)CC3)cc2C(=O)NC)c(Cl)cn1 [Example 67, 2-({5-Chloro-2-[(1-ethyl-1H-pyrazol-5-yl)amino]-4-pyridinyl}amino)-5-[4-(2-hydroxyethyl)-1-piperazinyl]-N-methylbenzamide]
